Paper PMC12035797, “Peptidomimetics Activating the Proteasome: A New Perspective for Parkinson’s Treatment” (Journal of Medicinal Chemistry, 2025)
Entries after “also recorded” stand apart in the source; their conditions may differ. Where a SMILES comes first, the peptide text is derived from it. [ ]: non-standard residue; d: D form. N(4-MeOBn)Gly = COc1ccc(CNCC(=O)O)cc1; NMeR = CN[C@@H](CCCNC(=N)N)C(=O)O; Gly(N-CH2CH2OH) = O=C(O)CNCCO; NMeS = CN[C@@H](CO)C(=O)O; Nlys = NCCCCNCC(=O)O

Columns and labels:
human 20S proteasome = system: T1, human 20S proteasome; experiment: h20S proteasome activity probed with FRET-type Dabcyl-EDANS substrate; type: biochemical; conditions: for h20S stimulating capacity, Dabcyl-EDANS: 1.0-50 μM modulator
T1 construct: human proteasome isolated from erythrocytes; from tissue; host or cells: human erythrocytes
Description: (§1) To assess the influence of substitutions increasing proteolytic stability on the modulators’ capacity to stimulate chymotrypsin-like, trypsin-like, and caspase-like activity of h20S, we used classic fluorogenic substrates: Suc-LLVY-AMC, Boc-LRR-AMC, and Z-LLE-AMC, respectively. To confirm the observed stimulating capacity, we also conducted assays using a FRET-type reporter peptide with a sequence consisting of 11 residues (Lys(Dabcyl)-[…]EDANS)-Gly).[27] As we checked, the activated 20S hydrolyzed this substrate after more than one residue (Lys, Gly, and Glu), which makes it a probe better reflecting the concerted action of the proteasome’s three peptidases. […] The discrepancy in the level of activation was mainly due to the greater sensitivity of the FRET substrate, as it is not digested, unlike the AMC-based probes, by the latent proteasome, which results in greater differences in fluorescence relative to the controls. […] The ability to affect individual peptidases of the proteasome in different ways is most likely related to the allosteric mechanism of action of the modulators. Binding at a site distant from the catalytic compartment may result in greater diversity in the pathways by which the signal reaches active sites and differential effects of that signal on each peptidase.
(§2) The effect of all synthesized peptidomimetics on the catalytic activity of the proteasome was tested using a human proteasome isolated from erythrocytes. Suc-LLVY-AMC, Boc-LRR-AMC, and Z-LLE-AMC fluorogenic substrates (Bachem, Bubendorf, Switzerland) were used for assessment of the chymotrypsin-, trypsin-, and caspase-like activities, respectively. A homemade FRET-type substrate Dabcyl-EDANS (Lys(Dabcyl)-[…]EDANS)-Gly)[26] was used as an additional probe. Stock solutions of the substrates and tested peptidomimetics were prepared in dimethyl sulfoxide (DMSO), ensuring that the final concentration of DMSO in all samples remained consistent at 2%. The small fluorogenic substrates were used at a final concentration of 100 μM, while Dabcyl-EDANS was prepared at a final concentration of 15 μM. Modulators were tested in concentrations ranging from 1.0 to 50 μM, with compounds containing TAT or 6R sequences tested at lower concentrations ranging from 0.5 to 10 μM. Activity tests were conducted in 96-well plates using 50 mM Tris/HCl, pH 8.0, as an assay buffer. The final concentration of h20S proteasome was adjusted to 0.002 mg/mL (2.8 nM). The fluorescence of released aminomethylcoumarin (AMC) was monitored at 460 nm (λex was 380 nm), while the hydrolysis of Dabcyl-EDANS was detected by measuring emission at 493 nm (λex was set at 335 nm). Fluorescence measurements were taken continuously every 2 min over a 60 min period at 37 °C using a Tecan Infinite M200Pro spectrofluorometer (Tecan Trading AG, Männedorf, Switzerland). All activity assays were performed in at least three independent replicates. The relative activity was calculated in relation to the catalytic activity of the vehicle (DMSO)-treated latent proteasome, which was regarded as 100%. Statistical analysis was performed using the one-way ANOVA followed by Tukey’s post-hoc test. P-value <0.05 was considered statistically significant.

[1] = system: T2, human 20S proteasome, ChT-L peptidase; experiment: Chymotrypsin-like (ChT-L) activity of h20S probed with Suc-LLVY-AMC; type: biochemical; conditions: 100 μM Suc-LLVY-AMC; for ChT-L stimulating capacity, Suc-LLVY-AMC: whole concentration range
T2 construct: human proteasome isolated from erythrocytes; from tissue; host or cells: human erythrocytes
Description: (§3) To assess the influence of substitutions increasing proteolytic stability on the modulators’ capacity to stimulate chymotrypsin-like, trypsin-like, and caspase-like activity of h20S, we used classic fluorogenic substrates: Suc-LLVY-AMC, Boc-LRR-AMC, and Z-LLE-AMC, respectively.
as §2, with “Modulators were tested in concentrations ranging from 1.0 to 50 μM, with compounds containing TAT or 6R sequences tested at lower concentrations ranging from 0.5 to 10 μM.” left out

[2] = Stability of the compounds in human plasma (UHPLC); type: in vitro ADME; conditions: 37 °C, 30 min
Description: We tested the proteolytic stability of the obtained peptidomimetics by incubating them with human plasma at 37 °C for 30 min. The process was monitored by UHPLC. Using mass spectrometry, the proteolytic degradation sites were determined (Figure 1B). […] Apparently, the modifications made the modulators considerably less susceptible to the action of proteases present in the plasma.
The modulators were incubated with human serum (Merck, Darmstadt, Germany) at 37 °C for 30 min. The compounds were dissolved in water, and their final concentration was 200 μM. Every 5 min, samples were taken from the incubated solution, and the reaction was stopped with 6% trichloroacetic acid (TCA) added to the sample in a 1:1 (v/v) ratio. Next, the samples were centrifuged for 10 min at 4 °C and 14,000 rpm. The supernatant was subjected to HPLC and MS analyses. The progress of proteolytic degradation of modulators was monitored using a UHPLC chromatograph (Shimadzu, Tokyo, Japan) with a Kinetex analytical column 100 mm × 2.1 mm, 2.6 μm, 100 Å (Phenomenex, Torrance, CA, USA) with UV detection at a wavelength of 223 nm. The degree of degradation was estimated based on the area of the peaks corresponding to the starting materials. In order to identify peptide fragments resulting from degradation, analysis was performed using an Autoflex maX MALDI TOF mass spectrometer (Bruker, […]). All experiments were performed in at least three independent replicates.

[3] = system: T3, human 20S proteasome, C-L peptidase; experiment: Caspase-like (C-L) activity of h20S probed with Z-LLE-AMC; type: biochemical; conditions: 100 μM Z-LLE-AMC
T3 construct: human proteasome isolated from erythrocytes; from tissue; host or cells: human erythrocytes
Description: as §1, §2

[4] = system: T4, human 20S proteasome, T-L peptidase; experiment: Trypsin-like (T-L) activity of h20S probed with Boc-LRR-AMC; type: biochemical; conditions: 100 μM Boc-LRR-AMC
T4 construct: human proteasome isolated from erythrocytes; from tissue; host or cells: human erythrocytes
Description: as §3
as §2, with “Modulators were tested in concentrations ranging from 1.0 to 50 μM, with compounds containing TAT or 6R sequences tested at lower concentrations ranging from 0.5 to 10 μM.” left out

[5] = PAMPA, blood–brain barrier mimic; type: in vitro ADME; conditions: 500 μM, 37 °C, 22 h
Description: In neurodegenerative diseases, proteins prone to aggregation accumulate in the neuronal cells. Therefore, a necessary feature of potential drugs is not only permeability across the cell membrane but also the ability to cross the blood-brain barrier (BBB). To preliminarily investigate this feature, we performed parallel artificial membrane permeation assays (PAMPA) including as positive controls propranolol and Tat47-57, known for their ability to penetrate the blood-brain barrier. Dopamine hydrobromide was included as a negative control. For comparison, we also tested compound 1a, which is devoid of a CPP sequence. […] The PAMPA was performed as previously described.[21] Briefly, a 2% solution of porcine brain lipid membrane (PBL; Avanti Polar Lipids Inc., Alabaster, AL, USA) in anhydrous dodecane was used as a mimic of the blood-brain barrier. Propranolol hydrochloride (Merck, Darmstadt, Germany) and Tat47-57 (synthesized in-house) served as positive controls, while dopamine hydrobromide (Merck, Darmstadt, Germany) was used as a negative control. Stock solutions of the tested compounds and controls were prepared at a concentration of 10 mM in deionized water and then diluted to 500 μM using 0.1 M PBS containing 5% DMSO. The donor-acceptor plate assembly was incubated at 37 °C while being shaken at 250 rpm for 22 h. Absorbance at 290 nm was measured for propranolol using an Infinite […] plate reader (Infinite […] plate reader, Tecan). For the other samples, fluorescence measurements were performed after the compounds were reacted with 0.02% fluorescamine. The rate of passive diffusion was calculated as the linear velocity of permeation (Pe). The data represent an average of three independent biological replicates.

ChT-L stimulating capacity, Suc-LLVY-AMC [1]	proteolytic stability in human plasma [2]	remaining at 0.5 h ([2]; human, plasma, UHPLC, read-out: amount of compound remaining after incubation with human plasma) [%]	C-L stimulating capacity, Z-LLE-AMC [3]	T-L stimulating capacity, Boc-LRR-AMC [4]	stimulation of h20S activity, Dabcyl-EDANS probe (human 20S proteasome; 15 μM Dabcyl-EDANS, level reached vs latent proteasome) [fold]	h20S stimulating potency, Dabcyl-EDANS (human 20S proteasome; at the lowest concentrations)	stimulation of h20S activity, Suc-LLVY-AMC probe ([1]; level reached vs latent proteasome) [fold]	permeability across artificial BBB membrane, PAMPA [5]	Compound	h20S stimulating capacity, Dabcyl-EDANS (human 20S proteasome; 15 μM Dabcyl-EDANS)
lower capacity of activating h20S	most stable	–	–	–	–	–	–	–	C[C@@H](O)[C@H](NC(=O)[C@H](Cc1ccccc1)NC(=O)[C@H](Cc1ccc(O)cc1)NC(=O)CNCCCCN)C(=O)NCC(=O)N[C@@H](CO)C(=O)N[C@@H](CCCCN)C(=O)N[C@@H](CC(=O)O)C(=O)N[C@@H](Cc1c[nH]c2ccccc12)C(=O)N[C@@H](CCCNC(=N)N)C(=O)N(CCO)CC(=O)N[C@@H](Cc1ccc(O)cc1)C(=O)N[C@@H](Cc1ccc(O)cc1)C(=O)N[C@@H](CO)C(=O)O [1c] (H-[Nlys]YFTGSKDWR[Gly(N-CH2CH2OH)]YYS-OH)	less strongly than 1
most effective h20S stimulators	very stable	–	–	–	–	–	–	–	C[C@@H](O)[C@H](NC(=O)[C@H](Cc1ccccc1)NC(=O)[C@H](Cc1ccc(O)cc1)NC(=O)CNCCCCN)C(=O)NCC(=O)N[C@@H](CO)C(=O)N[C@@H](CCCCN)C(=O)N[C@@H](CC(=O)O)C(=O)N[C@@H](Cc1ccc(O)cc1)C(=O)N[C@@H](CCCNC(=N)N)C(=O)N[C@@H](CCCNC(=N)N)C(=O)N[C@@H](Cc1ccc(O)cc1)C(=O)N[C@@H](Cc1ccc(O)cc1)C(=O)N[C@@H](CO)C(=O)O [compound 2a] (H-[Nlys]YFTGSKDYRRYYS-OH)	most effective h20S stimulators; also recorded: effective activator
lower capacity of activating h20S	–	< 30	moderate activator	poor activator	–	–	–	–	C[C@@H](O)[C@H](NC(=O)[C@H](Cc1ccccc1)NC(=O)[C@H](Cc1ccc(O)cc1)NC(=O)[C@@H](N)CCCCN)C(=O)NCC(=O)N[C@@H](CO)C(=O)N[C@@H](CCCCN)C(=O)N[C@@H](CC(=O)O)C(=O)N[C@@H](Cc1c[nH]c2ccccc12)C(=O)N(C)[C@@H](CCCNC(=N)N)C(=O)N(C)[C@@H](CO)C(=O)N[C@@H](Cc1ccc(O)cc1)C(=O)N[C@@H](Cc1ccc(O)cc1)C(=O)N[C@@H](CO)C(=O)O [compound 1d] (H-KYFTGSKDW[NMeR][NMeS]YYS-OH)	reached stimulation levels equal to those of the best activators; also recorded: less strongly than 1
–	–	–	–	–	12	even more potent than 1	8	at the level of a negative control	C[C@@H](O)[C@H](NC(=O)[C@H](Cc1ccccc1)NC(=O)[C@H](Cc1ccc(O)cc1)NC(=O)CNCCCCN)C(=O)NCC(=O)N[C@@H](CO)C(=O)N[C@@H](CCCCN)C(=O)N[C@@H](CC(=O)O)C(=O)N[C@@H](Cc1c[nH]c2ccccc12)C(=O)N[C@@H](CCCNC(=N)N)C(=O)N[C@@H](CO)C(=O)N[C@@H](Cc1ccc(O)cc1)C(=O)N[C@@H](Cc1ccc(O)cc1)C(=O)N[C@@H](CO)C(=O)O [compound 1a] (H-[Nlys]YFTGSKDWRSYYS-OH)	did not lose their ability to effectively stimulate h20S
least effective stimulants	most stable	–	weakest activators	weakest activators	–	–	–	–	COc1ccc(CN(CC(=O)N[C@@H](CCCNC(=N)N)C(=O)N[C@@H](CCCNC(=N)N)C(=O)N[C@@H](Cc2ccc(O)cc2)C(=O)N[C@@H](Cc2ccc(O)cc2)C(=O)N[C@@H](CO)C(=O)O)C(=O)[C@H](CC(=O)O)NC(=O)[C@H](CCCCN)NC(=O)[C@H](CO)NC(=O)CNC(=O)[C@@H](NC(=O)[C@H](Cc2ccccc2)NC(=O)CN(Cc2ccc(OC)cc2)C(=O)[C@@H](N)CCCCN)[C@@H](C)O)cc1 [2f] (H-K[N(4-MeOBn)Gly]FTGSKD[N(4-MeOBn)Gly]RRYYS-OH)	least effective stimulants
